In patent US8927254B2 (priority 2010, dated 2015):
Values after ≈ are worked out from the molar mass of the structure shown. Where two headings read alike, the source gives them in different places.

Tests used:
P. furiosus = assay: microbe, parasite or virus in culture; format: cell-based; conditions: Pyrococcus furiosus
[1] = test system: P. furiosus trp deletion strains; format: cell-based, Pyrococcus furiosus

SMILES: O=C(O)c1[nH]c(=O)[nH]c(=O)c1F [5-FOA, 5-fluoroorotic acid]
- MIC (P. furiosus): 8 mM (≈ 1390 µg/mL)

SMILES: Nc1ccc(F)cc1C(=O)O [5-FAA, 5-fluoroanthranilic acid]
- sensitivity to 5-FAA ([1]; trpAB deletion strain, tight tryptophan auxotroph): not sensitive
- sensitivity to 5-FAA ([1]; trpE or trpD deletion strains, leaky tryptophan auxotrophs): not sensitive
- sensitivity to 5-FAA ([1]; trpF (PF1707) pop-out deletion strain, leaky auxotroph): not sensitive

SMILES: CCC(C)(C)C(=O)O[C@H]1C[C@@H](C)C=C2C=C[C@H](C)[C@H](CC[C@@H]3C[C@@H](O)CC(=O)O3)[C@H]21 [simvastatin]
- MIC (P. furiosus): 0.01 to 0.024 mM (≈ 4.19 to 10 µg/mL)
